The values that follow come from patent US7094394B2, “Methods and compositions for controlling biofilm development” (priority 1997, dated 2006).

For one test, the system named is algD promoter. Put plainly: Alginate promoter reporter activity (beta-galactosidase), algD. The following applies: batch culture 48 hours, 10 uM OdDHL or 20 uM BHL. The test is classed as cell-based, P. aeruginosa strain 8830. The procedure: (§1) FIGS. 3a and 3b are alginate promoter studies which show the activity of the alginate promoters algC, and algD. Cultures of P. aeruginosa strain 8830 were grown for 48 hours in batch culture flasks containing EPRI medium. Test flasks were amended by either 10 uM OdDHL (PAI), 20 uM BHL (butyryl-L-homoserine lactone) or both (PAI+BHL). Following incubation, cells were harvested and promoter activity was measured as specific activity of the beta-galactosidase reporter enzyme as normalized to cell protein.
(§2) 4. […] Alginate is a common matrix material in biofilms, and is not exclusive to P. aeruginosa. The sensitivity of P. aeruginosa to HSL activity provides a rapid assay for HSLs that is sensitive and quantitative. The responsiveness of the specific biofilm genes algC and algD to HSL activity allows assays to be performed in liquid or on semi solid medium. This provides the opportunity to perform rapid screening of test molecules for their effect on alginate production.

The subject of a further test is algC promoter. Put plainly: Alginate promoter reporter activity (beta-galactosidase), algC. The class given is cell-based, P. aeruginosa strain 8830. As to conditions: batch culture 48 hours, 10 uM OdDHL or 20 uM BHL. The procedure:
as §1, §2

Test [1] deals with P. aeruginosa PDO100 biofilm. As to the kind of experiment: Biofilm dispersion by BHL in rhlI knockout. The test is classed as cell-based, Pseudomonas aeruginosa. The procedure: This hypothesis was investigated by growing biofilms of P. aeruginosa PDOlOO and adding BHL to the influent medium at a concentration of 20 μM after 7 days growth. […] When P. aeruginosa PDOIOO was grown in the absence of BHL, medium flow was turned off after 7 days. Following cessation of flow, no dispersion of cell clusters was observed over the duration of the observation period of 96 hours.

For test [2], the system named is P. aeruginosa PAO1 wild-type biofilm. Put plainly: Biofilm cell cluster average thickness, wild type. The class given is cell-based, Pseudomonas aeruginosa. As to conditions: 10 uM in growing PAO1 biofilm, 10 days incubation. The procedure: (§3) 1. Biofilm average cell cluster depth: This parameter is a measure of the average thickness in microns of cell clusters in a biofilm. Depth measurements are performed microscopically, by measuring the maximum distance from the substratum to the apex of a biofilm cell cluster at the bulk water interface in a steady state biofilm for a minimum of 20 cell clusters. Previous measurements have shown that with P. aeruginosa, the average cell cluster depth is 102.3 um with a standard error of the mean of 20.5 um. When the gene responsible for the production of the homoserine lactone OdDHL is knocked out, the average cell cluster depth drops to only 22.8 um with a standard error of the mean of 10.0.
Continuous culture studies. […]
(§4) Log phase P. aeruginosa were inoculated through a septum approximately 1 cm upstream from the flow cell while flow was maintained. […] Flow through the system was then increased to remove any bacteria attached to the inside surface of the coverslip (as determined by microscopy). […]
An analog of OdDHL, N-(2,2-difluorodecanoyl)-L-homoserine lactone was dissolved in 25% ethanol, 75% water by volume and added at a final concentration of 10 uM to growing biofilm cultures of P. aeruginosa PAO1 wild-type. Following 10 days incubation, the biofilm was analyzed for cell to cell distances, cell cluster thickness and response to treatment with 0.2% SDS. […]

Test [3] has the same test system. As to the kind of experiment: Average cell to cell distance in biofilm, wild type. The class given is cell-based, Pseudomonas aeruginosa. As to conditions: 10 uM in growing PAO1 biofilm, 10 days incubation. The procedure: (§5) 2. Biofilm cell nearest neighbor analysis: This parameter is a measure of the average distance spacing between cells within a biofilm cell cluster or between cells at a substratum. Both measurements are influenced by the presence of the homoserine lactone OdDHL. The nearest neighbor analysis is performed by imaging 20 or more fields in a biofilm reactor and electronically determining the centroid of each cell. The relative distances from a marker cell to all other cells is computed and iterated for each cell in the population. The average nearest neighbor is then calculated. […] When OdDHL is added to the nutrient feed of the mutant defective in the production of that HSL, the average nearest neighbor increases to just over 9 um in distance.
An analog of OdDHL, N-(2,2-difluorodecanoyl)-L-homoserine lactone was dissolved in 25% ethanol, 75% water by volume and added at a final concentration of 10 uM to growing biofilm cultures of P. aeruginosa PAO1 wild-type. Following 10 days incubation, the biofilm was analyzed for cell to cell distances, cell cluster thickness and response to treatment with 0.2% SDS. […] Finally, when treated with 0.2% SDS by weight, the treated biofilm was disrupted and dispersed within 30 minutes (FIGS. 5a to 5f).

For test [4], the system named is P. aeruginosa PAO1 biofilm cell clusters. As to the kind of experiment: Effect of detergent (0.2% SDS) on biofilm dispersion, wild type. The test is classed as cell-based, Pseudomonas aeruginosa. The procedure: SDS on wild-type P. aeruginosa PAO1. The bacteria were grown in EPRI medium in continuous culture for 10 days (a,d). Following the incubation period, 0.2% SDS was added to the reactor and flow was halted for 30 minutes (b,e). Following incubation with SDS, flow was reinitiated (c,f).
(§6) 3. […] It has been shown previously (Davies, Doctoral Thesis, Montana State University, 1996) that matrix polymer, specifically alginate, prevents the dissolution of P.aeruginosa cell clusters treated with 0.2% SDS. However, when cell clusters are formed in the absence of alginate they are completely disrupted in under 30 minutes (FIGS. 2a, 2b, 2c and 2d). By microscopic examination of cell cluster thickness before and after treatment with SDS or by capturing effluent samples following similar treatment, a quantitative evaluation of the effect of agents capable of blocking the production of detergent resistant matrix material can be made.
(§7) In the present experiment, treatment with the detergent was shown not to affect the biofilm in the absence of released alginate lyase.
Following 10 days incubation, the biofilm was analyzed for cell to cell distances, cell cluster thickness and response to treatment with 0.2% SDS. […] Finally, when treated with 0.2% SDS by weight, the treated biofilm was disrupted and dispersed within 30 minutes (FIGS. 5a to 5f).

In test [5] the test system is P. aeruginosa PAO-JP2 biofilm. Put plainly: Biofilm architecture recovery in double mutant (microscopy). The following applies: double mutant cultured with 10 μM OdDHL in fresh medium. The class given is cell-based, Pseudomonas aeruginosa.
Excerpt: The most unequivocal experimental design, to determine the role of HSL signal molecules on the formation of biofilms by cells of P. aeruginosa, was to use direct microscopic methods to monitor biofilm formation by cells of HSL negative mutants. For this reason planktonic cells of a wild-type strain (PAO1), and of three mutants incapable of synthesizing specific HSLs, were introduced into flow cells, and adhesion and biofilm formation were monitored by means of confocal scanning laser microscopy (CSLM). Using these techniques, it is possible to monitor the development of live biofilms of the strains of interest.
Continuous culture studies. A continuous culture apparatus was developed to observe the growth and development of biofilms attached to a glass substratum. The apparatus was configured as a once through flow cell system. The influent defined culture medium was retained in a four liter glass reservoir. Medium from the influent reservoir was pumped through silicone tubing via a Masterflex pump to an aeration flask sparged with a filtered air source. […]
as §4

Test [6] concerns P. aeruginosa PAO-JP1 biofilm. Put plainly: Biofilm average cell cluster depth, OdDHL knockout. The class given is cell-based, Pseudomonas aeruginosa. As to conditions: OdDHL added back to nutrient feed of OdDHL knockout; standard error 25.2. The procedure:
as §3
Continuous culture studies. A continuous culture apparatus was developed to observe the growth and development of biofilms attached to a glass substratum. The apparatus was configured as a once through flow cell system. The influent defined culture medium was retained in a four liter glass reservoir. […]
as §4

The subject of test [7] is P. aeruginosa JP1 biofilm. As to the kind of experiment: Biofilm cell nearest neighbor analysis, OdDHL knockout. The class given is cell-based, Pseudomonas aeruginosa. The following applies: OdDHL (10 uM) added to nutrient feed of OdDHL-defective mutant, at the substratum. The procedure:
as §5

The subject of test [8] is P. aeruginosa PAO-JP1 biofilm cell clusters. Put plainly: Effect of detergent (0.2% SDS) on biofilm dispersion, lasI knockout. The test is classed as cell-based, Pseudomonas aeruginosa. The procedure:
FIGS. 2a, 2b, 2c, and 2d are cell cluster studies which show the effect of the addition of 0.2% SDS to a biofilm cell cluster of the lasI knockout strain P. aerguginosa PAO-JP1. The strain was grown in EPRI medium for 10 days in continuous culture reactor under flowing conditions (a). SDS was added to the culture reactor and flow was turned off for 30 min (b,c). Following incubation in the presence of SDS, flow was reinitiated (d);
as §6, §7

Test [9] relates to P. aeruginosa PAO-JP2 biofilm cell clusters. Put plainly: Effect of detergent (0.2% SDS) on biofilm dispersion, double mutant. The class given is cell-based, Pseudomonas aeruginosa.
Excerpt: as §7

Structures are written as SMILES. Entries after “also recorded” stand apart in the source; their conditions may differ.

As to `CCCC(=O)N[C@H]1CCOC1=O` [BHL, N-butyryl-L-homoserine lactone], the algD promoter response result in the test on algD promoter is “sensitive”. Moreover, the algC promoter response result in the test with algC promoter is given as “sensitive”. Moreover, the “effect on biofilm with medium flow on” value in test [1] (20 μM BHL in influent medium after 7 days growth, 24 hours) is reported as “no observable effect”. Also, the “detachment after medium flow shut off” value in test [1] (20 μM BHL, flow off for 16 hours, detachment continued for three hours) is “significant detachment”.

As for `CCCCCCCCC(F)(F)C(=O)N[C@H]1CCOC1=O` [N-(2,2-difluorodecanoyl)-L-homoserine lactone], in [2], the “cell cluster average thickness” value is “under 20 um”. For the same molecule, in test [3], the “average cell to cell distance” value is listed as “less than 4 um”. In addition, the “time to disruption and dispersion on treatment with 0.2% SDS” value in test [4] (PAO1 biofilm grown 10 days with 10 uM blocking agent) was not above 30 min. The “cell cluster dispersion after 0.2% SDS and reinitiation of flow” value in test [4] (PAO1 cultured 10 days in presence of 20 uM OdDHL analog, SDS 30 minutes without flow) is recorded as “disperses completely”.

As for `CCCCCCCCCC(=O)CC(=O)N[C@H]1CCOC1=O` [OdDHL, N-(3-oxododecanoyl)-L-homoserine lactone], in [5], the biofilm architecture phenotype result was “recovery of the intermediary phenotype”. The algD promoter response entry in the test with algD promoter was “sensitive”. The “average cell cluster thickness” value in [6] stood at 100.1 um. For the same molecule, the “average nearest neighbor distance” value in test [7] was “over 9 um”. For the same molecule, the algC promoter response result in the test with algC promoter is on record as “sensitive”. Further, the “dispersion of cell clusters by 0.2% SDS” value in test [8] (PAO-JP1 grown in the presence of 10 μM OdDHL) is “did not disperse bacteria in the cell clusters”.

With `CCCCCCCCCCCCOS(=O)(=O)[O-].[Na+]` [SDS, sodium dodecyl sulfate], the “dispersion of cell clusters by SDS” value is given as “disperse completely” in test [9] and “disperse completely” in [8] (0.2% SDS, PAO-JP1 without added HSL). Further, the “effect of SDS on cell cluster integrity/dispersion” value in test [4] (0.2% SDS, untreated wild-type PAO1, sulfate) is listed as “no effect; also recorded: no dispersion or release of bacteria”. In [8] (0.2% SDS, cell clusters formed in the absence of alginate (FIGS. 2a-2d)), the “time to complete disruption of cell clusters by SDS” value is on record as “under 30 minutes”.
